# From patent publication US8518958B2, “Pyrido [2,3-D] pyrimidines and their use as kinase inhibitors” (Forma Therapeutics, Inc., priority 2006, dated 2013)
# Experiments:
# [1] = target: C-Raf Raf-1 (truncated), active (Homo sapiens, UniProt P04049, Y340D/Y341D); assay: C-Raf kinase inhibition (MAPH assay / IMAP assay); settings: read-out: Biochemical IC50 C-Raf
# Source text: We characterized the in vitro inhibitory activity against protein kinases of compounds of the present invention by determining their IC50 values (see Table 2).
# Kinase: C-Raf Raf-1 (truncated), active (Upstate; cat. no. 14-352)
# Reaction Temperature: room temperature
# Assay Plate: 96 well U bottom plate (Greiner, 650161)
# MultiScreen-PH Plate: 96 well MAPH Filter Plates (Millipore, MAPHNOB50)
# Filter Washing Solution: 0.75% H3PO4
# Scintillation Liquid: Supermix Liquid Scintillator (PerkinElmer, 1200-439)
# Negative Control (C−): 100 mM EDTA, no inhibitor
# Positive Control (C+): no inhibitor
# Reaction Buffer (Final Concentration):
# Final Assay Concentrations:
# Kinase: Use kinase conc. yielding 10% ATP turnover as determined in titration experiment.
# Adenosine 5′-[γ-^33P]triphosphate: 12.5 μCi/ml (Amersham Biosciences, BF1000)
# Substrate: Myelin Basic Protein 57.8 μM (Invitrogen, 13228-010)
# Pipetting Sequence: • 1) Add 10 μl 4-fold concentrated substrate+4-fold concentrated ATP in 3-fold concentrated reaction buffer to each well of assay plate • 2) Add 10 μl […] concentrated inhibitor in 4% DMSO in H2O to each well except to C− and C+ wells (starting point: final inhibitor concentration 10 μM; IC50 determination based on dilution series) • 3) Add 10 μl 4% DMSO in H2O to C− and C+ wells • 4) Add 10 μl 500 mM EDTA in H2O to C− wells • 5) Add 10 μl 50 μCi/ml adenosine 5′-[γ-^33P]triphosphate in H2O to each well • 6) Add 10 μl […] concentrated kinase in Reaction Buffer to each well • 7) Incubate 1 hr at room temperature • 8) Add 10 μl 50 mM EDTA in H2O to each well except to C− wells • 9) Prepare MAPH plates by adding 200 μl 0.75% H3PO4 to each well • 10) Exhaust 0.75% H3PO4 using Millipore vacuum station • 11) Add 60 μl 0.75% H3PO4 to each well of MAPH filter plate • 12) Transfer 30 μl sample per well from assay plate to corresponding well of MAPH filter plate • 13) Incubate 30 min at room temperature • 14) Wash each well of MAPH filter plates 3× with 200 μl 0.75% H3PO4 using Millipore vacuum station • 15) Add 20 μl scintillation liquid to each well of MAPH filter plate • 16) Seal MAPH filter plate • 17) Store MAPH filter plate 30 min in darkness • 18) Quantify radioactivity using scintillation counter (MicroBeta, Perkin-Elmer)
# Reaction Volume: 8.0108 μl
# IMAP Incubation Time: 60 min
# Assay Plate: 384 well U bottom, PP, black, low volume (Corning, 3676)
# Compound Plate: 384 well U bottom, PS (Falcon, 3995)
# IMAP Binding Buffer A: Molecular Devices, R7282
# IMAP Binding Buffer B: Molecular Devices, R7283
# IMAP Binding Reagent: Molecular Devices, R7207
# Negative Control (C−): no kinase, no inhibitor
# Reation buffer: 20 mM Hepes, pH 7.5 • 1 mM DTT • 10 mM MnCl2 • 0.01% Brij35
# Kinase: Kinase conc. yielding 50% substrate turnover as determined in titration experiment • c-Raf (Upstate 14-352)
# Substrate: 5F1-SGQLIDSMANSFV-NH2 400 nM (jpt Peptide Technologies GmbH, Berlin, Germany)
# IMAP Binding Solution: 75% IMAP Binding Buffer A • 25% IMAP Binding Buffer B • IMAP Binding Reagent 1:800
# Pipetting Sequence: • 1) Add 6 μl 1.33-fold concentrated substrate+1.33-fold concentrated ATP in 1-fold concentrated reaction buffer to each well of assay plate • 2) Add 10.8 nl 740-fold concentrated inhibitor in 100% DMSO to each well except to C− and C+ wells using pintool (CyBio, Jena, Germany) (starting point: final inhibitor concentration 10 μM; IC50 determination based on dilution series) • 3) Add 10.8 nl 100% DMSO to C− and C+ wells using pintool • 4) Add 2 μl reaction buffer to C− wells • 5) Add 2 μl 4-fold concentrated kinase in reaction buffer to each well except C− wells • 6) Incubate according to reaction time at room temperature • 7) Add 15 μl IMAP binding solution to each well • 8) Incubate according to IMAP incubation time at room temperature • 9) Measure fluorescence polarization (Analyst GT, Molecular Devices)
# B-Raf delta1-415 = B-Raf delta1-415 (Homo sapiens, UniProt P15056); assay: B-Raf kinase inhibition (MAPH filter plate, 33P-ATP, MEK1 substrate); settings: read-out: Biochemical IC50 B-Raf
# Sequence of B-Raf delta1-415 (P15056 416-766): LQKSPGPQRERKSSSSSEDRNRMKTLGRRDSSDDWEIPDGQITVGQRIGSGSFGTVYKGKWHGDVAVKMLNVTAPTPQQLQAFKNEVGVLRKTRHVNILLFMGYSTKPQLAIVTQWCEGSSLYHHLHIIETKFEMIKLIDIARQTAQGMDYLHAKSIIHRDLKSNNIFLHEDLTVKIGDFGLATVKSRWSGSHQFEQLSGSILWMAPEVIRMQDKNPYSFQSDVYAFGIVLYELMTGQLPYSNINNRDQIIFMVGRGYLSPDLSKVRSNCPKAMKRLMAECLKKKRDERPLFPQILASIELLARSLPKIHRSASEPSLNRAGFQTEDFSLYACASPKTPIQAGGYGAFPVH
# Summary of the method: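 IC50 values come from dilution series (top 10 μM) measured by scintillation counting of 33P-labelled MEK1 retained on H3PO4-washed filters. Reactions ran 1 h at room temperature in pH 7.0 Mops buffer with MgCl2, MnCl2 and DTT, using 12.5 μCi/ml [γ-33P]ATP and B-Raf delta1-415 titrated to 50% turnover.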
# HT-29 tumor cells = assay: Anti-proliferative activity, SRB assay; type: cell-based, human; settings: Homo sapiens, HT-29, 72 h, 72 hours exposure, read-out: CELLULAR IC50 HT-29
# Summary of the method: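 IC50 derived from % inhibition relative to DMSO controls, measured by sulforhodamine B binding (OD570) after TCA fixation. Cells (3,000-15,000 per well) were seeded a day ahead, then treated with graded compound concentrations for 72 hours.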
# Sequence of C-Raf Raf-1 (truncated), active (P04049 306-648 Y340D/Y341D): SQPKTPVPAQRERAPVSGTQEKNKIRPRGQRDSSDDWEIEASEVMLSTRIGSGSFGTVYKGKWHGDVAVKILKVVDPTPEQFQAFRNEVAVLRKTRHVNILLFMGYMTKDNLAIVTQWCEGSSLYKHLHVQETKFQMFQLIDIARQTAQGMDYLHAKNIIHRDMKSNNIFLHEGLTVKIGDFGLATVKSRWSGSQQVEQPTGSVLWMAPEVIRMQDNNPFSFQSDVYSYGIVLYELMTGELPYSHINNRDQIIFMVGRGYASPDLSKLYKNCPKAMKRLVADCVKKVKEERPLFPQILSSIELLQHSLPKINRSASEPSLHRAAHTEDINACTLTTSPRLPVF
Structure (SMILES),IC50 [1] [nM],IC50 (B-Raf delta1-415) [nM],IC50 (HT-29 tumor cells) [nM]
"COn1c(=O)c(-c2c(Cl)cccc2Cl)cc2cnc(Nc3cccc(CO)c3)nc21 [Compound 1, 6-(2,6-Dichlorophenyl)-2-(3-hydroxymethylphenylamino)-8-methoxy-pyrido[2,3-d]pyrimidin-7-one]",< 100,< 100,< 1000
"COn1c(=O)c(-c2c(Cl)cccc2Cl)cc2cnc(Nc3cccc(SC)c3)nc21 [Compound 2, 6-(2,6-Dichlorophenyl)-8-methoxy-2-(3-methylthiophenylamino)-pyrido[2,3-d]pyrimidin-7-one]",< 500,< 100,< 1000
"COc1cccc(Nc2ncc3cc(-c4c(Cl)cccc4Cl)c(=O)n(OC)c3n2)c1 [Compound 3, 6-(2,6-Dichlorophenyl)-8-methoxy-2-(3-methoxyphenylamino)-pyrido[2,3-d]pyrimidin-7-one]",< 100,< 100,< 1000
"COn1c(=O)c(-c2c(C)cccc2C)cc2cnc(Nc3cccc(S(N)(=O)=O)c3)nc21 [Compound 72, 6-(2,6-Dimethylphenyl)-8-methoxy-2-(3-sulfamoylphenylamino)-pyrido[2,3-d]pyrimidin-7-one]",< 100,,< 1000
"COn1c(=O)c(-c2c(Cl)cccc2Cl)cc2cnc(Nc3ccc(/C=N/O)cc3)nc21 [Compound 210, 2-(4-(hydroximino)methylphenyl)-amino-6-(2,6-dichlorophenyl)-8-methoxy-pyrido[2,3-d]pyrimidin-7-one]",,< 500,< 1000
"COn1c(=O)c(-c2c(F)cccc2Cl)cc2cnc(Nc3ccc(N4CCNCC4)c(F)c3)nc21 [Compound 211, 6-(2-Chloro-6-fluorophenyl)-2-(3-fluoro-4-piperazinophenyl)-amino-8-methoxy-pyrido[2,3-d]pyrimidin-7-one]",,< 100,< 1000
"CN1CC[C@H](COn2c(=O)c(-c3c(F)cccc3Cl)cc3cnc(Nc4ccc(N5CCOCC5)cc4)nc32)C1 [Compound 212, 6-(2-Chloro-6-fluorophenyl)-8-(3-(S)-1-methyl-pyrrolidin-3-yl)methoxy-2-(4-morpholinophenyl)-amino-pyrido[2,3-d]pyrimidin-7-one]",,< 100,< 1000
"COn1c(=O)c(-c2c(F)cccc2Cl)cc2cnc(Nc3ccc(N4CCNCC4)c(C#N)c3)nc21 [Compound 213, 6-(2-Chloro-6-fluorophenyl)-8-methoxy-2-(3-cyano-4-piperazinophenyl)-amino-pyrido[2,3-d]pyrimidin-7-one]",,< 100,< 1000
"COc1cc(Nc2ncc3cc(-c4c(F)cccc4Cl)c(=O)n(OC)c3n2)ccc1N1CCNCC1 [Compound 214, 6-(2-Chloro-6-fluorophenyl)-8-methoxy-2-(3-methoxy-4-piperazinophenyl)-amino-pyrido[2,3-d]pyrimidin-7-one]",,< 100,< 1000
O=c1c(-c2c(F)cccc2Cl)cc2cnc(Nc3ccc(N4CCNCC4)cc3)nc2n1OCC1CCOCC1 [Compound 215],,< 100,< 1000
"COCCOn1c(=O)c(-c2c(F)cccc2Cl)cc2cnc(Nc3ccc(N4CCNCC4)cc3)nc21 [Compound 216, 6-(2-Chloro-6-fluorophenyl)-8-(2-methoxyethyl)oxy-2-(4-piperazinophenyl)-amino-pyrido[2,3-d]pyrimidin-7-one]",,< 500,< 1000
"CCCN1CCN(c2ccc(Nc3ncc4cc(-c5c(F)cccc5Cl)c(=O)n(OC)c4n3)cc2)CC1 [Compound 217, 6-(2-Chloro-6-fluorophenyl)-8-methoxy-2-(4-(4-propylpiperazino)phenyl)-amino-pyrido[2,3-d]pyrimidin-7-one]",,< 500,< 1000
"COn1c(=O)c(-c2c(F)cccc2Cl)cc2cnc(Nc3ccc(N4CCNCC4)c(CO)c3)nc21 [Compound 218, 6-(2-Chloro-6-fluorophenyl)-8-methoxy-2-(3-hydroxymethyl-4-piperazinophenyl)-amino-pyrido[2,3-d]pyrimidin-7-one]",,< 100,< 1000
"COn1c(=O)c(-c2c(Cl)cccc2Cl)cc2cnc(Nc3cccc(O)c3)nc21 [Compound 219, 6-(2,6-Dichlorophenyl)-2-(3-hydroxyphenyl)-amino-8-methoxy-pyrido[2,3-d]pyrimidin-7-one]",,< 500,< 10000
COn1c(=O)c(-c2c(F)cccc2Cl)cc2cnc(Nc3cc(C(=O)N(C)CCOC(=O)c4cccnc4)n(C)c3)nc21 [Compound 220],,< 500,< 1000
"COn1c(=O)c(-c2c(Cl)cccc2Cl)cc2cnc(Nc3ccc(N4CCCN(C)CC4)cc3)nc21 [Compound 221, 6-(2,6-Dichlorophenyl)-8-methoxy-2-(4-(4-methyl-1,4-diazacycloheptyl)phenyl-)-amino-pyrido[2,3-d]pyrimidin-7-one]",,< 100,< 1000
"COn1c(=O)c(-c2c(F)cccc2Cl)cc2cnc(Nc3ccc(C4CCNCC4)cc3)nc21 [Compound 222, 6-(2-Chloro-6-fluorophenyl)-8-methoxy-2-(4-(piperidin-4-yl)phenyl)-amino-pyrido[2,3-d]pyrimidin-7-one]",,< 100,< 1000
"COn1c(=O)c(-c2c(F)cccc2Cl)cc2cnc(Nc3ccc(N4CCN(S(C)(=O)=O)CC4)cc3)nc21 [Compound 223, 6-(2-Chloro-6-fluorophenyl)-8-methoxy-2-(4-(4-methylsulfonylpiperazino)phenyl)-amino-pyrido[2,3-d]pyrimidin-7-one]",,< 100,< 1000
O=c1ccc2cnc(Nc3ccccc3)nc2n1OC1CCCC1 [Compound 225],,> 1000,< 10000
O=c1ccc2cnc(Nc3ccc(N4CCOCC4)cc3)nc2n1OC1CCCC1 [Compound 226],,> 1000,< 10000
"Nc1ncc2cc(-c3c(Cl)cccc3Cl)c(=O)n(OCc3cccnc3)c2n1 [Compound 232, 2-Amino-6-(2,6-dichlorophenyl)-8-(pyrid-3-yl)methoxy-pyrido[2,3-d]pyrimidin-7-one]",,< 1000,< 10000
CC(C)(C)On1c(=O)c(Br)cc2cnc(Nc3ccccc3)nc21 [Compound 239],,> 10000,> 10000
"O=c1c(-c2ccccc2Cl)cc2cnc(Nc3ccccc3)nc2n1O [Compound 240, 6-(2-Chlorophenyl)-8-hydroxy-2-phenylamino-pyrido[2,3-d]pyrimidin-7-one]",,> 1000,< 10000
